Data taken from US11944662B2, “Methods and compositions for preventing or treating ophthalmic conditions” (Stealth BioTherapeutics Inc., priority 2009, dated 2024).
Where two headings read alike, the source gives them in different places. Where a SMILES comes first, the peptide text is derived from it. Where no end group is shown, it is not given here. [ ]: non-standard residue; d: D form. Dmt = Cc1cc(O)cc(C)c1C[C@H](N)C(=O)O

Assays:
HRECs = experiment: Survival of HRECs in high glucose, Annexin V/PI flow cytometry; type: cell-based, human; conditions: 24 hours after treatment
Experimental: FIGS. 1A and 1B show the effects of different concentrations of SS-31 (10 nM, 100 nM, 1 μM and 10 μM) used as co-treatment with 30 mM glucose (HG). […] FIG. 1B is a graphic representation of the survival ratio for HRECs.
See generally, Li B, Tang S B, Zhang G, Chen J H, Li B J. Culture and characterization of human retinal capillary endothelial cell. Chin Ophthal Res 2005; 23: 20-2; Premanand C, Rema M, Sameer M Z, Sujatha M, Balasubramanyam M. Effect of curcumin on proliferation of human retinal endothelial cells under in vitro conditions. Invest Ophthalmol Vis Sci 2006; 47: 2179-84.
Briefly, HREC cells were divided into three groups: a normal control group; a group administered 30 mM glucose; and a group administered 30 mM glucose+SS-31. Survival of HRECs in high glucose co-treated with different concentrations of SS-31 (10 nM, 100 nM, 1 μM, 10 μM) was measured using an Annexin V+PI assay and flow cytometry. See generally, Koopman, G., Reutelingsperger, C. P., Kuijten, G. A. M., Keehnen, R. M. J., Pals, S. T., and van Oers, M. H. J. 1994. Annexin V for flow cytometric detection of phosphatidylserine expression on B cells undergoing apoptosis. Blood 84: 1415; Homburg, C. H., de Haas, M., von dem Borne, A. E., Verhoeven, A. J., Reutelingsperger, C. P., and Roos, D. 1995. Human neutrophils lose their surface Fc gamma Rill and acquire Annexin V binding sites during apoptosis in vitro. Blood 85: 532; Vermes, I., Haanen, C., Steffens-Nakken, H., and Reutelingsperger, C. 1995. A novel assay for apoptosis-flow cytometric detection of phosphatidylserine expression on early apoptotic cells using fluorescein labelled Annexin V. J. Immunol. Meth. 184: 39; Fadok, V. A., Voelker, D. R., Campbell, P. A., Cohen, J. J., Bratton, D. L., and Henson, P. M. 1992. Exposure of phosphatidylserine on the surface of apoptotic lymphocytes triggers specific recognition and removal by macrophages. J. Immunol. 148: 2207.
The survival of HRECs in high glucose co-treated with SS-31 was tested at 24 h and 48 h.

[1] = test system: trabecular meshwork cells from glaucoma patients (GTM)
Experimental: (§1) To assess whether SS-31 had cytotoxic effects of HTM or GTM cells, various concentrations of SS-31 were administered to cells and the cytotoxicity was measured using an LDH assay. A LDH cytotoxicity assay is a colorimetric method of assaying cellular cytotoxicity. The assay quantitatively measures the stable, cytosolic, lactate dehydrogenase (LDH) enzyme, which is released from damaged cells. The released LDH is measured with a coupled enzymatic reaction that results in the conversion of a tetrazolium salt (iodonitrotetrazolium (INT)) into a red color formazan by diaphorase. […] See generally, Haslam, G. et al. (2005) Anal. Biochem. 336: 187; Tarnawski, A. (2005) Biochem. Biophys. Res. Comm. 333: 207; Round, J. L et al. (2005) J. Exp. Med. 201: 419; Bose, C. et al. (2005) Am. J. Physiol. Gastr. L. 289: G926; Chen, A. and Xu, J. (2005) Am. J. Physiol. Gastr. L. 288: G447. The LDH activity is determined as NADH oxidation or INT reduction over a defined time period.

[2] = test system: trabecular meshwork cells from non-diseased individuals (HTM)
Experimental: as §1

GTM cells [3] = conditions: n=3
Description: (§2) FIG. 37 is a graph showing the fluorescence intensity of ROS of GTM and HTM cells in control and SS-31-treated groups, as measured using FACS analysis.

HTM cells [4] = conditions: n=4
Description: as §2

GTM cells [5] = conditions: n=4
Description: (§4) The effects of SS-31 at mitigating acute oxidative injury in GTM and HTM cells was investigated.

HTM cells [6] = conditions: n=4; remark: listed apart in the source
Description: as §4

[7] = test system: primary human retinal pigment epithelial (RPE) cells; conditions: different concentrations, 24 h
Experimental: Primary cultured human RPE cells were incubated with different concentrations of SS-31 alone for a period of 24 h, and cell viability was determined by a MTT assay (FIG. 22).

lenses of diabetic rats [8] = experiment: Cataract formation in lenses, HFD/STZ diabetic rat model; type: in vivo, Sprague-Dawley rat; conditions: for Percentage of opacity (%) / Percentage of severe opacity (%) / Turbidity degree ++++ (count) / Turbidity degree +++ (count) / Turbidity degree ++ (count) / Turbidity degree + (count) / Turbidity degree − (count): HFD/STZ rat model; for Turbidity degree ++++ (count): ++++: severely opaque; for Turbidity degree +++ (count): +++: moderately opaque; for Turbidity degree ++ (count): ++: opaque; for Turbidity degree + (count): +: mildly opaque; for Turbidity degree − (count): −: transparent
Experimental: The example describes the results of such experiments.
(§3) A rat model of diabetes was established by combination of 6-week HFD and low dose of STZ (30 mg/kg) injection or a single high dose of STZ (65 mg/kg) in SD rats. See generally, K. Srinivasan, B. Viswanad, Lydia Asrat, C. L. Kaul and P. Ramarao, Combination of high-fat diet-fed and low-dose streptozotocin-treated rat: A model for type 2 diabetes and pharmacological screening, Pharmacological Research, 52(4): 313-320, 2005. Rats of the same batch fed with normal chow (NRC) were used as a control.

lenses of diabetic rats [9] = experiment: Cataract formation in lenses, STZ diabetic rat model; type: in vivo, Sprague-Dawley rat; conditions: 10 mg (Table 9: 10 mg/kg s.c.)
Experimental: as §3

[10] = test system: inner blood-retinal barrier; experiment: Inner blood-retinal barrier function, Evans blue extravasation, diabetic rats; type: in vivo, Sprague-Dawley rat; conditions: compared to rats on a HFD not administered SS-20 or SS-31
Description: FIGS. 10A-10B is a series of charts showing the integrity of the blood-retinal barrier of normal rats (NRC), diabetic rats, and diabetic rats treated with SS-20 or SS-31, as analyzed by Evans blue extravasation. (10A) diabetes induced by STZ; (10B) diabetes induced by HFD/STZ.
The effect of the aromatic-cationic peptides on the inner blood-retinal barrier function in the SD rat model was investigated.

## Cc1cc(O)cc(C)c1C[C@H](NC(=O)[C@H](N)CCCNC(=N)N)C(=O)N[C@@H](CCCCN)C(=O)N[C@@H](Cc1ccccc1)C(N)=O [SS-31, D-Arg-2′,6′-Dmt-Lys-Phe-NH2] (H-[dR][Dmt]KF-NH2)
HRECs; 30 mM glucose + SS-31 10 nM
  survival ratios for HRECs (Q3): 84.3%
HRECs; 30 mM glucose + SS-31 100 nM
  survival ratios for HRECs (Q3): 90.7%
HRECs; 30 mM glucose + SS-31 1 μM
  survival ratios for HRECs (Q3): 92.8%
HRECs; 30 mM glucose + SS-31 10 μM
  survival ratios for HRECs (Q3): 94.3%
[1]; at 10^−3 M
  cytotoxicity: no cytotoxicity
[1]; various concentrations
  viability (LDH cytotoxicity assay): does not affect the viability
[2]; at 10^−3 M
  cytotoxicity: no cytotoxicity
[2]; various concentrations
  viability (LDH cytotoxicity assay): does not affect the viability
GTM cells [3]; H2O2 + SS-31 10^−6 M
  percentage of intracellular ROS production compared to GTM control: 84.5±8.75%
GTM cells [3]; H2O2 + SS-31 10^−7 M
  percentage of intracellular ROS production compared to GTM control: 102.0±5.69%
GTM cells [3]; H2O2 + SS-31 10^−8 M
  percentage of intracellular ROS production compared to GTM control: 133.0±5.17%
HTM cells [4]; H2O2 + SS-31 10^−6 M
  percentage of intracellular ROS production, HTM groups: 79±2.39%
HTM cells [4]; H2O2 + SS-31 10^−7 M
  percentage of intracellular ROS production, HTM groups: 91.8±3.49%
HTM cells [4]; H2O2 + SS-31 10^−8 M
  percentage of intracellular ROS production, HTM groups: 129.0±8.24%
GTM cells [5]; H2O2 + SS-31 10^−6 M
  percentage of fluorescence intensity of TMRM compared to GTM control: 56.2±4.04%
GTM cells [5]; H2O2 + SS-31 10^−7 M
  percentage of fluorescence intensity of TMRM compared to GTM control: 50.3±4.46%
GTM cells [5]; H2O2 + SS-31 10^−8 M
  percentage of fluorescence intensity of TMRM compared to GTM control: 47.5±2.82%
HTM cells [6]; H2O2 + SS-31 10^−6 M
  percentage of fluorescence intensity of TMRM, HTM groups: 57.7±1.80%
HTM cells [6]; H2O2 + SS-31 10^−7 M
  percentage of fluorescence intensity of TMRM, HTM groups: 50.6±3.06%
HTM cells [6]; H2O2 + SS-31 10^−8 M
  percentage of fluorescence intensity of TMRM, HTM groups: 49.4±2.27%
[7]
  cell viability (MTT assay), SS-31 alone: did not adversely effect

## F[dR]FK-NH2 [SS-20]
Lenses of diabetic rats [8]; HFD/STZ and STZ models (FIGS. 6 and 7, Tables 11 and 12)
  cataract formation in the lenses of diabetic rats: prevention or reversal of cataract formation
Lenses of diabetic rats [8]; 3 mg (Table 7: 3 mg/kg s.c.)
  Percentage of opacity (%): 75.0%
  Percentage of severe opacity (%): 25.0%
  Turbidity degree ++++ (count): 1
  Turbidity degree +++ (count): 0
  Turbidity degree ++ (count): 1
  Turbidity degree + (count): 1
  Turbidity degree − (count): 1
Lenses of diabetic rats [8]; 10 mg (Table 7: 10 mg/kg s.c.)
  Percentage of opacity (%): 75.0%
  Percentage of severe opacity (%): 0%
  Turbidity degree ++++ (count): 0
  Turbidity degree +++ (count): 0
  Turbidity degree ++ (count): 1
  Turbidity degree + (count): 2
  Turbidity degree − (count): 1
Lenses of diabetic rats [9]
  Percentage of opacity (%): 60.0%
  Percentage of severe opacity (%): 20.0%
Lenses of diabetic rats [9]; ++++: severely opaque
  Opacity degree ++++ (count): 1
Lenses of diabetic rats [9]; +++: moderately opaque
  Opacity degree +++ (count): 0
Lenses of diabetic rats [9]; ++: opaque
  Opacity degree ++ (count): 2
Lenses of diabetic rats [9]; +: mildly opaque
  Opacity degree + (count): 0
Lenses of diabetic rats [9]; −: transparent
  Opacity degree − (count): 2
[10]
  inner blood-retinal barrier function: improved
